Measured values taken from patent US12225903B2, “Synergistic cleaning disinfectant solution with enhanced stability, and methods of using the same” (Diversey, Inc., priority 2019, dated 2025).
Like-named read-outs stand apart in the source and are kept apart here.

What was measured:
[1] = system: bacteria Staphylococcus aureus, Escherichia coli, and Lactobacillus brevis; experiment: Amount of antimicrobial acid required to pass EN1276:2009 (antibacterial activity); assay type: cell-based; details: gluconic and salicylic acid used in combination
Text: To pass the EN1276 test method, a log reduction of greater than or equal to 5 must be achieved in five minutes.

[2] = system: fungus Aspergillus niger and yeast Saccharomyces cerevisiae; experiment: Amount of antimicrobial acid required to pass EN1650:2008 (antifungal activity); assay type: cell-based; details: gluconic and salicylic acid used in combination
Text: To pass the EN 1650:2008 antimicrobial testing protocol, a log reduction of greater than or equal to 4 must be achieved in fifteen minutes.

[3] = in combination with gluconic acid

O=C(O)[C@H](O)[C@@H](O)[C@H](O)[C@H](O)CO [Gluconic Acid, Gluconic acid]
Concentration of Antimicrobial Acids required to pass ([1]; Clean, 4° C.): 300 ppm | Concentration of Antimicrobial Acids required to pass ([1]; Clean, 25° C.): 150 ppm | Concentration of Antimicrobial Acids required to pass ([1]; Dirty, 4° C.): 300 ppm | Concentration of Antimicrobial Acids required to pass ([1]; Dirty, 25° C.): 150 ppm | Concentration of Antimicrobial Acids required to pass ([2]; Clean, 4° C.): 750 ppm | Concentration of Antimicrobial Acids required to pass ([2]; Clean, 25° C.): 600 ppm | Concentration of Antimicrobial Acids required to pass ([2]; Dirty, 4° C.): 750 ppm | Concentration of Antimicrobial Acids required to pass ([2]; Dirty, 25° C.): 750 ppm

O=C(O)c1ccccc1O [Salicylic Acid, Salicylic acid]
Concentration of Antimicrobial Acids required to pass ([1]; Clean, 4° C.): 75 ppm | Concentration of Antimicrobial Acids required to pass ([1]; Clean, 25° C.): 37 ppm | Concentration of Antimicrobial Acids required to pass ([1]; Dirty, 4° C.): 75 ppm | Concentration of Antimicrobial Acids required to pass ([1]; Dirty, 25° C.): 37 ppm | Concentration of Antimicrobial Acids required to pass ([2]; Clean, 4° C.): 188 ppm | Concentration of Antimicrobial Acids required to pass ([2]; Clean, 25° C.): 150 ppm | Concentration of Antimicrobial Acids required to pass ([2]; Dirty, 4° C.): 188 ppm | Concentration of Antimicrobial Acids required to pass ([2]; Dirty, 25° C.): 188 ppm | required amount of salicylic acid in the disclosed cleaning disinfectant solution [3]: less than 2 % by weight | required amount of salicylic acid in the disclosed cleaning disinfectant solution ([3]; to pass EN1276:2009 and EN1650:2008): less than 2 wt %
